The results in this text go back to ChEMBL document CHEMBL4393685, “Synthesis and evaluation of pyrimidoindole analogs in umbilical cord blood ex vivo expansion” (Eur J Med Chem, 2019).

In general, EC50 refers to the concentration needed to bring the measured effect to its halfway point.

Active and inactive are the calls of the source. The calls are words filed in the database; no cut-off is given here.

The nature of data set [1]: Stimulation of ex vivo expansion of human CD34+ cells assessed as CD34+CD38- level at 0.01 to 1 uM incubated for 7 days supplemented with 50% fresh medium containing cytokines every other day by flow cytometry (reference value: 19.10 +/- 0.35%). Type of data set: functional.
A short description of data set [2]: Stimulation of ex vivo expansion of human CD34+ cells assessed as CD34+CD38- level incubated for 7 days supplemented with 50% fresh medium containing cytokines every other day by flow cytometry. Type of data set: functional. Particulars: Homo sapiens, 168 h; read-out: EC50. On the technique in general: In flow cytometry, cells or beads pass a laser one at a time.

Data set [3] can be described thus: Stimulation of ex vivo expansion of human CD34+ cells assessed as CD34+ cells at 165 nM incubated for 7 days supplemented with 50% fresh medium containing cytokines every other day by flow cytometry (reference value: 25.9 +/- 0.01%). Type of data set: functional.
The nature of data set [4]: Stimulation of ex vivo expansion of human CD34+ cells assessed as CD34+/CD38- cells at 165 nM incubated for 7 days supplemented with 50% fresh medium containing cytokines every other day by flow cytometry (reference value: 19.16 +/- 0.32%). Type of data set: functional.
Data set [5] is described as follows: Stimulation of ex vivo expansion of human CD34+ cells assessed as CD34+CD38-CD90+[…] cells at 165 nM incubated for 7 days supplemented with 50% fresh medium containing cytokines every other day by flow cytometry (reference value: 2.98 +/- 0.5%). Type of data set: functional.
A short description of data set [6]: Stimulation of ex vivo expansion of human CD34+ cells assessed as CD34+CD38-CD90+[…]CD49F+ cells at 165 nM incubated for 7 days supplemented with 50% fresh medium containing cytokines every other day by flow cytometry (reference value: 0.16 +/- 0.04%). Type of data set: functional.
A short description of data set [7]: Stimulation of ex vivo expansion of human CD34+ cells assessed as colony forming cells at 165 nM measured after 14 days. Type of data set: functional.
The species entered for data set [8] is Homo sapiens. As to the kind of experiment: Stimulation of ex vivo expansion of human CD34+ assessed as increase in granulocyte differentiation at 165 nM measured after 14 days. Type of data set: functional.
The species entered for data set [9] is Homo sapiens. As to the kind of experiment: Stimulation of ex vivo expansion of human CD34+ cells assessed as increase in granulocyte/macrophage differentiation at 165 nM measured after 14 days. Type of data set: functional.
Data set [10] is filed under the species Homo sapiens. As to the kind of experiment: Stimulation of ex vivo expansion of human CD34+ cells assessed as decrease in burst forming units of erythroid at 165 nM measured after 14 days. Type of data set: functional.
Data set [11] relates to THP-1. Kind of data set: Cytotoxicity against human THP1 cells assessed as reduction cell viability up to 1600 nM after 4 days by CCK8 assay. Type of data set: cell-based. Particulars: thp-1, 96 h. For orientation: Formazan colour is commonly taken as a measure of viable cells.
Data set [12] is described as follows: Cytotoxicity against human CD34+ cells assessed as live cells at 165 nM incubated for 7 days supplemented with 50% fresh medium containing cytokines every other day by flow cytometry (reference value: 77.3 +/- 2%). Type of data set: cell-based. Particulars: read-out: Activity.
Data set [13] can be described thus: Stimulation of ex vivo expansion of human CD34+ cells assessed as CD34+/CD38- level at 0.01 to 1 uM incubated for 7 days supplemented with 50% fresh medium containing cytokines every other day by flow cytometry relative to control. Type of data set: functional.
Data set [14] is described as follows: Stimulation of ex vivo expansion of human CD34+CD38- cells assessed as increase in expansion of total cells at 165 nM incubated for 7 days supplemented with 50% fresh medium containing cytokines every other day by flow cytometry relative to control. Type of data set: functional.
A short description of data set [15]: Stimulation of ex vivo expansion of human CD34+ cells assessed as increase in expansion of total cells at 165 nM incubated for 7 days supplemented with 50% fresh medium containing cytokines every other day by flow cytometry relative to control. Type of data set: functional.
The nature of data set [16]: Stimulation of ex vivo expansion of human CD34+ cells assessed as increase in CD34+CD38- cells at 165 nM incubated for 7 days supplemented with 50% fresh medium containing cytokines every other day by flow cytometry relative to base line. Type of data set: functional.
Data set [17] in a line: Stimulation of ex vivo expansion of human CD34+ cells assessed as increase in CD34+CD38- cells at 165 nM incubated for 7 days supplemented with 50% fresh medium containing cytokines every other day by flow cytometry relative to control. It counts as functional.
Data set [18] is described as follows: Stimulation of ex vivo expansion of human CD34+ cells assessed as increase in expansion of total cells at 165 nM incubated for 7 days supplemented with 50% fresh medium containing cytokines every other day by flow cytometry relative to base line. It counts as functional.
Data set [19] is described as follows: Stimulation of ex vivo expansion of human CD34+ cells assessed as increase in CD34+ cells at 165 nM incubated for 7 days supplemented with 50% fresh medium containing cytokines every other day by flow cytometry relative to base line. It counts as functional.
Data set [20] in a line: Stimulation of ex vivo expansion of human CD34+ cells assessed as increase in colony forming cells at 165 nM after 14 days relative to control. It counts as functional.

`COc1cc2c(cc1OC)CN(CCNc1nc(Cc3ccccc3)nc3[nH]c4cc(-c5nnn(C)n5)ccc4c13)CC2`: the Activity in data set [1] came to 69.69%; in data set [3] it was 60.33%; in data set [4], 58%; in data set [5], 4.05%; in data set [6], 0.21%; in [7] it was 254 CFU. In data set [11], the Activity result is listed as “Non-Toxic”. Moreover, the EC50 in [2] worked out at 30 nM. Also, the result in [8], in data set [9] and in data set [10] was Active. The viability at 168 h, 0.165 µM in data set [12] was found to be 80.6%. Moreover, the “fold change (FC)” value in data set [13] was 3.65; in [14], 4.9; in data set [15], 2.4; in data set [16], 4 - 5; in data set [17] it was 4.4; in [18], 5. The “fold change (FC)” value was 5 in data set [19] and 1.4 in data set [20].
